Experimental data from the supplement of paper PMC10307832.

Columns and labels:
Experiment in all cases: relative viability (nuclei count vs DMSO), 5 days (fraction); higher = more cells survive
[1] = compound: C1=CC=C2C(=C1)N=C(S2)C(C#N)C3=NC(=NC=C3)NCCC4=CN=CC=C4 + Nc1nc2[nH]cc(CCc3ccc(C(=O)N[C@@H](CCC(=O)O)C(=O)O)cc3)c2c(=O)[nH]1 [Pemetrexed] (partner 0.2 µM)
In short: (§1)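 Cells from lung cancer lines were seeded into 1536-well plates and, one day later, dosed by pin tool. Treatments were either a single drug or a fixed dose of an anchor drug with five library-drug doses (not always all listed) in √10 steps. After 5 days, nuclei were stained in a one-step fixation (final 0.05% Triton X-100, 1% formaldehyde, 1 ug/ml Hoechst) and counted on 4× images, and relative viability is the treated-to-vehicle nuclei ratio, as the median of duplicate plates.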

Vandetanib + AZD7762 = compound: COc1cc2/c(=N/c3ccc(Br)cc3F)nc[nH]c2cc1OCC1CCN(C)CC1 [Vandetanib] + NC(=O)Nc1cc(-c2cccc(F)c2)sc1C(=O)N[C@H]1CCCNC1 [AZD7762] (partner 0.2 µM)
In short: as §1

CUDC-101 + Pemetrexed = compound: C#Cc1cccc(Nc2ncnc3cc(OC)c(OCCCCCCC(=O)NO)cc23)c1 [CUDC-101] + Nc1nc2[nH]cc(CCc3ccc(C(=O)N[C@@H](CCC(=O)O)C(=O)O)cc3)c2c(=O)[nH]1 [Pemetrexed] (partner 0.2 µM)
In short: as §1

CUDC-101 + Lapatinib = compound: C#Cc1cccc(Nc2ncnc3cc(OC)c(OCCCCCCC(=O)NO)cc23)c1 [CUDC-101] + CS(=O)(=O)CCNCc1ccc(-c2ccc3ncnc(Nc4ccc(OCc5cccc(F)c5)c(Cl)c4)c3c2)o1 [Lapatinib] (partner 2 µM)
In short: as §1

Cell Line | relative viability ([1]; first compound 0.005 µM) | relative viability ([1]; first compound 0.01581 µM) | relative viability ([1]; first compound 0.05 µM) | relative viability ([1]; first compound 0.1581 µM) | relative viability ([1]; first compound 0.5 µM) | relative viability (Vandetanib + AZD7762; first compound 0.02 µM) | relative viability (Vandetanib + AZD7762; first compound 0.06325 µM) | relative viability (Vandetanib + AZD7762; first compound 0.2 µM) | relative viability (Vandetanib + AZD7762; first compound 0.6325 µM) | relative viability (Vandetanib + AZD7762; first compound 2 µM) | relative viability (CUDC-101 + Pemetrexed; first compound 0.01 µM) | relative viability (CUDC-101 + Pemetrexed; first compound 0.03162 µM) | relative viability (CUDC-101 + Pemetrexed; first compound 0.1 µM) | relative viability (CUDC-101 + Pemetrexed; first compound 0.3162 µM) | relative viability (CUDC-101 + Pemetrexed; first compound 1 µM) | relative viability (CUDC-101 + Lapatinib; first compound 0.01 µM) | relative viability (CUDC-101 + Lapatinib; first compound 0.03162 µM) | relative viability (CUDC-101 + Lapatinib; first compound 0.1 µM) | relative viability (CUDC-101 + Lapatinib; first compound 0.3162 µM) | relative viability (CUDC-101 + Lapatinib; first compound 1 µM)
LC-2-ad | 0.259 | 0.328 | 0.293 | 0.271 | 0.278 | 0.807 | 0.809 | 0.766 | 0.756 | 0.69 | 0.247 | 0.271 | 0.284 | 0.26 | 0.284 | 0.984 | 1.02 | 1.06 | 0.863 | 0.198
LCLC-97TM1 | 0.196 | 0.185 | 0.181 | 0.172 | 0.198 | 0.185 | 0.306 | 0.299 | 0.261 | 0.139 | 0.166 | 0.172 | 0.183 | 0.157 | 0.135 | 0.905 | 0.766 | 1.13 | 1.01 | 0.807
LK-2 | 0.237 | 0.27 | 0.295 | 0.325 | 0.281 | 0.36 | 0.345 | 0.309 | 0.369 | 0.515 | 0.255 | 0.28 | 0.245 | 0.207 | 0.133 | 0.981 | 0.888 | 0.973 | 0.887 | 0.559
LOU-NH91 | 0.403 | 0.429 | 0.418 | 0.375 | 0.441 | 0.759 | 0.765 | 0.678 | 0.718 | 0.755 | 0.411 | 0.414 | 0.421 | 0.315 | 0.341 | 0.843 | 0.772 | 0.764 | 0.825 | 0.641
LU99A | 0.215 | 0.214 |  | 0.193 | 0.19 | 0.303 | 0.516 | 0.344 | 0.238 | 0.334 | 0.205 | 0.197 | 0.179 | 0.18 | 0.176 | 1.2 | 0.889 | 0.987 | 0.861 | 0.321
LXF-289 | 0.832 | 0.979 | 0.876 | 0.912 | 0.857 | 1.07 | 1.08 | 1.04 | 1.1 | 1.01 | 0.881 | 0.888 | 0.873 | 0.904 | 0.805 | 0.895 | 0.915 | 0.97 | 0.915 | 0.694
NCI-H23 |  | 0.511 | 0.701 | 0.779 | 0.641 | 0.193 | 0.251 | 0.199 | 0.234 | 0.31 | 0.757 | 0.744 | 0.604 | 0.755 | 0.514 | 1.08 | 0.963 | 1.19 | 0.918 | 0.559
NCI-H322M | 0.608 | 0.602 | 0.569 | 0.582 | 0.607 | 0.518 | 0.567 | 0.605 | 0.496 | 0.374 | 0.636 | 0.604 | 0.585 | 0.569 | 0.453 | 0.618 | 0.648 | 0.521 | 0.575 | 0.603
NCI-H358 | 0.265 | 0.173 | 0.169 | 0.165 | 0.188 | 0.545 | 0.465 | 0.476 | 0.431 | 0.358 | 0.181 | 0.187 | 0.166 | 0.161 | 0.154 | 0.553 | 0.397 | 0.517 | 0.489 | 0.29
NCI-H460 |  | 0.0618 | 0.0556 | 0.0607 | 0.0831 | 0.497 | 0.624 | 0.57 | 0.466 | 0.581 | 0.0606 | 0.0635 | 0.0676 | 0.0669 | 0.0703 | 1.04 | 0.994 | 0.873 | 0.919 | 0.339
NCI-H596 | 0.464 | 0.517 | 0.485 | 0.58 | 0.495 | 1.15 | 1.05 | 1.12 | 1.02 | 1.17 | 0.466 | 0.538 | 0.482 | 0.644 | 0.472 | 1.04 | 1.04 | 1.03 | 1.08 | 0.982
NCI-H647 | 0.165 | 0.175 | 0.182 | 0.179 | 0.19 | 0.404 | 0.481 | 0.395 | 0.404 | 0.446 | 0.177 | 0.167 | 0.199 | 0.194 | 0.165 | 1.25 | 1.1 | 1.02 | 0.863 | 0.271
NCI-H650 | 0.938 | 0.879 | 0.905 | 0.924 | 1.14 | 1.01 | 1.02 | 0.976 | 0.941 | 0.905 | 1.02 | 0.916 | 1 | 0.904 | 0.803 | 0.947 | 1.1 | 0.899 | 0.582 | 0.405
NCI-H838 | 0.216 | 0.242 | 0.243 | 0.262 | 0.249 | 0.902 | 0.895 | 0.976 | 1.03 | 0.894 | 0.332 | 0.248 | 0.257 | 0.26 | 0.198 | 0.934 | 1 | 1.03 | 1.11 | 0.552
NCI-H1355 | 1.05 | 1.01 | 1.02 | 1.13 | 1.02 | 0.741 | 0.742 | 0.755 | 0.66 | 0.653 | 0.995 | 1.07 | 0.974 | 1.13 | 1.02 | 1.04 | 0.825 | 1.05 | 0.895 | 0.679
NCI-H1395 | 0.71 |  | 0.949 | 1.13 | 0.952 | 0.404 | 0.399 | 0.427 | 0.418 | 0.434 | 0.856 | 0.91 | 0.943 | 0.877 | 0.676 | 1.04 | 1.13 | 1.05 | 0.862 | 0.661
